Experimental findings from patent publication US20230295096A1, “PYRAZOLE CARBOXAMIDE COMPOUNDS FOR TREATMENT OF HBV” (ASSEMBLY BIOSCIENCES, INC., priority 2020, published 2023) are described below.

Where only a bound is given, the exact number is not on record here.

The subject of one test is HBV. Kind of test: Viral load production from HepAD38 cells, qPCR of the HBV core sequence in supernatant. Format: cell-based. To be noted: HepAD38 cells, 5 days, HBV DNA in supernatant by qPCR; Table 1 ranges; read-out: Activity (viral load lowering EC50). As for the experimental part:
HepAD38 cells grown in a T-150 flask (Corning, cat#: 430825) with Growth Medium (DMEM/F12 (1:1) (Hyclone, cat#: SH30023.02), 1X Pen/Strep (Invitrogen, cat#: 15140-122), 10% FBS (Tissue Culture Biologics, cat#: 101), 250 µg/mL G418 (Alfa Aesar, cat#: J62671), 1 µg/mL Tetracycline (Teknova, cat#: T3320)) were detached with 0.25% trypsin-EDTA (Invitrogen, cat#: 25200-056). Tetracycline-free treatment medium (15 mL DMEM/F12 (1:1) 1× Pen/step, with 2% FBS, Tet-system approved (Clontech, cat#: 631106) were then added to mix, transferred into a 50 ml conical tube (Falcon, cat#: 21008-918,) and spun at 1300 rpm for 5 min. Pelleted cells were then re-suspended/washed with 50 mL of 1X DPBS (Invitrogen, cat#: 14190-136) 2 times and 50 mL treatment medium twice. HepAD38 cells were then re-suspended with 10 mL of treatment medium, syringed and counted. Wells of 96-well clear bottom TC plate (Corning, cat#: 3904,) were seeded at 50.000 cells/well in 180 µL of treatment medium, and 20 µL of either 10% DMSO (Sigma, cat#: D4540) as controls or a 10X solution of test compounds in 10% DMSO in treatment media was added for a final compound concentration starting at 10 µM, and plates were incubated in 5% CO2 incubator at 37° C. for 5 days.
Subsequently viral load production was assayed by quantitative PCR (qPCR) of the HBV core sequence. PCR reaction mixture containing forward primers HBV-f 5′-CTGTGCCTTGGGTGGCTTT-3′ (IDT DNA), Reverse primers HBV-r 5′-[…]-3′ (IDT DNA), Fluorescent TaqMan^tm Probes HBV-probe 5′-FAM/AGCTCCAAA/ZEN/[…]/3IABkFQ-3′ (IDT DNA), 10 µL/well of PerfeCTa® qPCR ToughMix® (Quanta Biosciences, Cat#: 95114-05 K), and 6 µL/well of DEPC water (Alfa Aesar, cat#: J62087) was prepared. Four µL of supernatant was added to 16 µL of the reaction mixture in a qPCR plate (Applied Biosytems, Cat#: 4309849), sealed with a film (Applied Biosystems, Cat#: 4311971), centrifuged for a few seconds, and subsequently run on an Applied Biosystems VIIA7. The PCR mixture was incubated at 45° C. for 5 min, then 95° C. for 10 min, followed by 40 cycles of 10 seconds at 95° C. and 20 seconds at 60° C. Viral load was quantified against known HBV DNA standards by using ViiA™ 7 Software. Viral load in the supernatant from wells with treated cells were compared against viral load in supernatant from DMSO control wells (≥ 3 per plate). Cell viability assay was performed with CellTiter-Glo Luminescent Cell Viability Assay (Promega, cat#: G7573) with modification. Mixed appropriate amount of CellTiter-Glo (CTG) 1X DPBS in a 1:1 ratio, added 100 uL of the mixture to each well followed completely removal of all supernatant in each well without touching cell surface. Incubated the plate at room temperature for 10 min on an orbital shaker, and then read the plate with a plate reader (TECAN M1000 or Envision). EC50 or CC50 values were calculated through curve-fitting of the four-parameter nonlinear-logistic-regression model (GraphPad Prism or Dotmatics). CC50 values were all >10 µM.
For orientation: Real-time PCR tracks product formation cycle by cycle.
With “3-Amino-N-(3-chloro-4-fluorophenyl)-5-(5-hydroxy-5-(1-methyl-1H-imidazol-4-yl)octahydropentalen-2-yl)-2λ^2-pyrazole-4-carboxamide [Example 20]”, the EC50 (usually the concentration giving half of the maximal effect) was less than 10 nM.

On to `Cn1nc(C2CC3CC(CNC(=O)C4CC4)CC3C2)c(C(=O)Nc2ccc(F)c(Cl)c2)c1N` (single isomer, unassigned) [Example 42, 5-Amino-N-(3-chloro-4-fluorophenyl)-3-(5-(cyclopropanecarboxamidomethyl)octahydropentalen-2-yl)-1-methyl-1H-pyrazole-4-carboxamide], for which the EC50 was less than 10 nM.

On to `CN(C)C(=O)NCC1CC2CC(c3nn(C)c(N)c3C(=O)Nc3ccc(F)c(Cl)c3)CC2C1` (single isomer, unassigned) [Example 43, 5-Amino-N-(3-chloro-4-fluorophenyl)-3-(5-((3,3-dimethylureido)methyl)octahydropentalen-2-yl)-1-methyl-1H-pyrazole-4-carboxamide], for which the EC50 was less than 10 nM. As for `Cn1nc(C2CC3CC(CNC(=O)C(C)(C)O)CC3C2)c(C(=O)Nc2ccc(F)c(Cl)c2)c1N` (single isomer, unassigned) [Example 44, 5-Amino-N-(3-chloro-4-fluorophenyl)-3-(5-((2-hydroxy-2-methylpropanamido)methyl)octahydropentalen-2-yl)-1-methyl-1H-pyrazole-4-carboxamide], the EC50 was less than 10 nM. With `C[C@@H](NC(=O)C1CC2CC(c3nn(C)c(N)c3C(=O)Nc3ccc(F)c(Cl)c3)CC2C1)C(F)(F)F` (single isomer, unassigned) [Example 102], the EC50 lay within 10 to 50 nM. Consider `CC(NC(=O)N1CC2CC(c3nn(C)c(N)c3C(=O)Nc3ccc(F)c(Cl)c3)CC2C1)C(F)(F)F` (single isomer, unassigned) [Example 129, 5-(5-Amino-4-((3-chloro-4-fluorophenyl)carbamoyl)-1-methyl-1H-pyrazol-3-yl)-N-(1,1,1-trifluoropropan-2-yl)hexahydrocyclopenta[c]pyrrole-2(1H)-carboxamide], for which the concentration for a half-maximal effect (EC50) is 50 to 500 nM. `Cn1nc(C2CC3CC(O)(CNc4ncc(C(F)F)cn4)CC3C2)c(C(=O)Nc2ccc(F)c(Cl)c2)c1N` (single isomer, unassigned) [Example 202A]: the EC50 fell in the range of 10 to 50 nM.

As to `Cn1nc(C2CC3CC(O)(CNc4ncc(C(F)F)cn4)CC3C2)c(C(=O)Nc2ccc(F)c(Cl)c2)c1N` (single isomer, unassigned) [Example 202B], the EC50 was in the range of 50 to 500 nM. Still for that read-out and setting: for `Cn1nc(C(F)(F)F)cc1NCC1(O)CC2CC(c3nn(C)c(N)c3C(=O)Nc3ccc(F)c(Cl)c3)CC2C1` (single isomer, unassigned) [Example 203B] the value was 10 to 50 nM; for `Cn1nc(C2CC3CC(O)(CNc4cc(N)ncn4)CC3C2)c(C(=O)Nc2ccc(F)c(Cl)c2)c1N` (single isomer, unassigned) [Example 205A], less than 10 nM; for `Cn1nc(C2CC3CC(O)(CNc4cc(N)ncn4)CC3C2)c(C(=O)Nc2ccc(F)c(Cl)c2)c1N` (single isomer, unassigned) [Example 205B], 50 to 500 nM.

Still in this test, the particulars now being: HepAD38 cells, 5 days, HBV DNA in supernatant by qPCR; Table 2 ranges; read-out: VL HepAD38 EC50 range.
Regarding `Cn1nc(C2CC3CC(O)C(c4ccccc4)C3C2)c(C(=O)Nc2ccc(F)c(Cl)c2)c1N` (single isomer, unassigned) [Example 142, 5-Amino-N-(3-chloro-4-fluorophenyl)-3-(5-hydroxy-4-phenyloctahydropentalen-2-yl)-1-methyl-1H-pyrazole-4-carboxamide], the EC50 is less than 100 nM.

Regarding `Cn1nc(C2CC3CC(c4ccccc4)C(O)C3C2)c(C(=O)Nc2ccc(F)c(Cl)c2)c1N` (single isomer, unassigned) [Example 143, 5-Amino-N-(3-chloro-4-fluorophenyl)-3-(4-hydroxy-5-phenyloctahydropentalen-2-yl)-1-methyl-1H-pyrazole-4-carboxamide], the 50% effective concentration (EC50) was less than 100 nM. Still for that read-out and setting: for `Cn1nc(C2CC3CC(c4ccccc4)C(O)C3C2)c(C(=O)Nc2ccc(F)c(Cl)c2)c1N` (single isomer, unassigned) [Example 144, 5-Amino-N-(3-chloro-4-fluorophenyl)-3-(4-hydroxy-5-phenyloctahydropentalen-2-yl)-1-methyl-1H-pyrazole-4-carboxamide] the value was less than 100 nM.

Still in this test, the particulars now being: Hepatitis B virus, HePAD38, 120 h, HepAD38 cells, 5 days, HBV DNA in supernatant by qPCR; Table 1 ranges; read-out: Activity (viral load lowering EC50).
As for `Cn1nc(C2CC3CC(CNC(=O)C(C)(C)O)CC3C2)c(C(=O)Nc2ccc(F)c(Cl)c2)c1N` (single isomer, unassigned) [Example 39, 5-Amino-N-(3-chloro-4-fluorophenyl)-3-(5-((2-hydroxy-2-methylpropanamido)methyl)octahydropentalen-2-yl)-1-methyl-1H-pyrazole-4-carboxamide], the EC50 was less than 10 nM.

Regarding `Cn1nc(C2CC3CC(CNC(=O)C4CC4)CC3C2)c(C(=O)Nc2ccc(F)c(Cl)c2)c1N` (single isomer, unassigned) [Example 40, 5-Amino-N-(3-chloro-4-fluorophenyl)-3-(5-(cyclopropanecarboxamidomethyl)octahydropentalen-2-yl)-1-methyl-1H-pyrazole-4-carboxamide], the concentration giving a half-maximal response (EC50) was less than 10 nM. Regarding `CN(C)C(=O)NCC1CC2CC(c3nn(C)c(N)c3C(=O)Nc3ccc(F)c(Cl)c3)CC2C1` (single isomer, unassigned) [Example 41, 5-Amino-N-(3-chloro-4-fluorophenyl)-3-(5-((3,3-dimethylureido)methyl)octahydropentalen-2-yl)-1-methyl-1H-pyrazole-4-carboxamide], the EC50 is less than 10 nM.

For `C[C@@H](NC(=O)C1CC2CC(c3nn(C)c(N)c3C(=O)Nc3ccc(F)c(Cl)c3)CC2C1)C(F)(F)F` (single isomer, unassigned) [Example 101], the EC50 lay within 10 to 50 nM. Consider `C[C@H](NC(=O)C1CC2CC(c3nn(C)c(N)c3C(=O)Nc3ccc(F)c(Cl)c3)CC2C1)C(F)(F)F` (single isomer, unassigned) [Example 103], for which the EC50 lay in the range of 10 to 50 nM.

Consider `CC(NC(=O)N1CC2CC(c3nn(C)c(N)c3C(=O)Nc3ccc(F)c(Cl)c3)CC2C1)C(F)(F)F` (single isomer, unassigned) [Example 128, 5-(5-Amino-4-((3-chloro-4-fluorophenyl)carbamoyl)-1-methyl-1H-pyrazol-3-yl)-N-(1,1,1-trifluoropropan-2-yl)hexahydrocyclopenta[c]pyrrole-2(1H)-carboxamide], for which the 50% effective concentration (EC50) lay in the range of 50 to 500 nM. Same read-out and setting: as for `Cn1nc(C(F)(F)F)cc1NCC1(O)CC2CC(c3nn(C)c(N)c3C(=O)Nc3ccc(F)c(Cl)c3)CC2C1` (single isomer, unassigned) [Example 203A], the figure is less than 10 nM.

Staying with this test, now noted: Hepatitis B virus, HePAD38, 120 h, HepAD38 cells, 5 days, HBV DNA in supernatant by qPCR; Table 2 ranges; read-out: VL HepAD38 EC50 range.
Regarding `Cn1nc(C2CC3CC(O)C(c4ccccc4)C3C2)c(C(=O)Nc2ccc(F)c(Cl)c2)c1N` (single isomer, unassigned) [Example 141, 5-Amino-N-(3-chloro-4-fluorophenyl)-3-(5-hydroxy-4-phenyloctahydropentalen-2-yl)-1-methyl-1H-pyrazole-4-carboxamide], the EC50 was less than 100 nM. As for `Cn1nc(C2CC3CC(c4ccccc4)C(O)C3C2)c(C(=O)Nc2ccc(F)c(Cl)c2)c1N` (single isomer, unassigned) [Example 145, 5-Amino-N-(3-chloro-4-fluorophenyl)-3-(4-hydroxy-5-phenyloctahydropentalen-2-yl)-1-methyl-1H-pyrazole-4-carboxamide], the concentration giving a half-maximal response (EC50) is less than 100 nM.
